The record followed here is BindingDB's records for patent US12534451 (St. Jude Children''s Research Hospital, Inc., 2026).

In this test the target is Pantothenate kinase 3 (Homo sapiens, UniProt Q9H999). The test can be described thus: PANK Activity Assay. The method, then:
All the experiments were repeated twice in duplicate and the data were an average ±data range. […] The experiments mimicking the mixture of ligands present in vivo were performed under different conditions.

Sequence of Pantothenate kinase 3 (Q9H999 whole entry): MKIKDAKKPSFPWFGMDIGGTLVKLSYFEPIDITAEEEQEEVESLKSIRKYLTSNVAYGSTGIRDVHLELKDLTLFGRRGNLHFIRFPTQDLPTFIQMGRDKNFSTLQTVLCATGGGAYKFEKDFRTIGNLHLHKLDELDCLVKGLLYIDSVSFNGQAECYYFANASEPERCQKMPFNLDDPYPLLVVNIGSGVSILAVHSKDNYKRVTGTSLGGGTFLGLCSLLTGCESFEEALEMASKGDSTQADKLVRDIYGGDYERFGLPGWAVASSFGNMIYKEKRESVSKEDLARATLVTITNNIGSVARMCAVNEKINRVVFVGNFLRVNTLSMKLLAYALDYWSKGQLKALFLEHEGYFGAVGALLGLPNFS

Broadly, the IC50 is the midpoint of a concentration-inhibition curve. Read a high IC50 as weaker potency. Consider `O=C(Cc1ccc(C2CC2)c(F)c1)N1CCN(c2nc3ncc(F)cc3o2)CC1` [US12534451, Compound PZ-4351], for which the midpoint of inhibition, the IC50, lay at 1.23 nM.
